Measured values from patent publication US11273151B2, “Methods of treating tumors and cancer, and identifying candidate subjects for such treatment” (ICAHN SCHOOL OF MEDICINE AT MOUNT SINAI, priority 2015, dated 2022).
Entries after “also recorded” stand apart in the source; their conditions may differ.

Experiments:
[1] = test system: TEAD/YAP dependent transcription; experiment: TEAD4 luciferase reporter assay; assay type: cell-based, human
Method: Cells were plated at 2×10^4 cells/well in 24 well plates, unless otherwise stated, 48 hours before collection and treated or genetically manipulated as described. Firefly and renilla luciferase activities were assayed with the dual luciferase assay system (Promega, Madison Wis., USA), as directed, and firefly luciferase activity was normalized to renilla luciferase activity. Firefly and renilla luminescence were measured with the TD-20e Luminometer (Turner).

MDA-MB-231 = experiment: Clonogenic cell proliferation assay, MDA-MB-231; assay type: cell-based, human; details: 10 μM; MDA-MB-231, p53 DNA-contact mutation
Method: (§1) For clonogenic assay, cells were plated in triplicate at 1×10^3 cells in 6-well plates. Cells were treated or genetically manipulated as described. After 10 to 14 days, colonies were stained with 1% crystal violet in ethanol and photographed.

SK-BR-3 = experiment: Clonogenic cell proliferation assay, SK-BR-3; assay type: cell-based, human; details: 10 μM; SK-BR-3, p53 conformational mutation
Method: as §1

[2] = test system: tumor lines with p53 DNA-contact mutations; experiment: Clonogenic cell proliferation assay, p53 DNA-contact mutant tumor lines; assay type: cell-based, human
Method: as §1

ROCK1 = ROCK1 (Homo sapiens, UniProt Q13464); details: read-out: reported ICD50 for inhibition of ROCK1; cited from earlier work
ROCK2 = ROCK2 (Homo sapiens, UniProt O75116); details: read-out: reported ICD50 for inhibition of ROCK2; cited from earlier work
[3] = test system: tumor lines expressing p53 conformational mutations; experiment: Clonogenic cell proliferation assay, p53 conformational mutant tumor lines; assay type: cell-based, human; details: for inhibition of proliferation: single agent, concentration not given
Method: as §1

SK-LMS-1 = experiment: Clonogenic cell proliferation assay, SK-LMS-1; assay type: cell-based, human; details: SK-LMS-1, p53 conformational mutation; concentration not given
Method: as §1

MDA-MB-468 = experiment: Clonogenic cell proliferation assay, MDA-MB-468; assay type: cell-based, human; details: MDA-MB-468, p53-DNA contact tumor line
Method: as §1

HCC-193 = experiment: Clonogenic cell proliferation assay, HCC-193; assay type: cell-based, human; details: HCC-193, p53-DNA contact tumor line
Method: as §1

HCC-1395 = experiment: Clonogenic cell proliferation assay, HCC-1395; assay type: cell-based, human; details: HCC-1395, p53 conformational mutant line
Method: as §1

[4] = test system: tumor lines harboring mutations in Hippo pathway core components; experiment: Proliferation of tumor lines with Hippo pathway core component lesions; assay type: cell-based; details: tumor cells with lesions in Hippo pathway core components
Method: as §1

non-tumorigenic cells = experiment: Proliferation of non-tumorigenic cells; assay type: cell-based; details: FIG. 7
Method: as §1

[5] = test system: TEAD endogenous target gene expression; experiment: Quantitative real-time PCR of TEAD endogenous target genes; assay type: cell-based, human; details: p53 DNA-contact mutant tumor lines
Method: Total RNA was extracted from cells using QIAshredder (Qiagen, Valencia, Calif., USA) and RNeasy Mini kit (Qiagen) following the manufacturer's instructions. First-strand cDNA synthesis was performed using Superscript II reverse transcriptase (Invitrogen, Carlsbad, Calif., USA) according to the manufacturer's instructions. Quantitative PCR was carried out using the ViiA™ 7 Real-Time PCR System (Life Technologies) using the FastStart SYBR Green Master mix (Roche, 04673492001). Primers were as follows: PCR was performed in 384 well plates using 10 μl volumes under the following conditions: 95° C. for 15 min, followed by 40 cycles of 94° C. for 15 sec, 61° C. for 30 sec, and 72° C. for 30 sec. Specificity was verified by a dissociation curve. Results were analyzed with ViiA7 RUO software (Life Technologies).

MCF10A cells = experiment: Anchorage-independent growth assay in soft agar; assay type: cell-based; details: FIG. 4C
Method: Growth in soft agar was determined by seeding 2.5×10^3 MCF10A cells in 1 ml of growth media containing 0.3% agar (BD 214050) on top of 1 ml of 0.48% agar in 35-mm dishes. Cells were fed every 4 days for 3 weeks with 0.2 mL of growth medium. Colonies were stained with 1% crystal violet in ethanol and photographed. Colony density was measured using Image J. Assays were conducted in triplicate.

[6] = single agent, concentration not given

Sequence of ROCK2 (O75116 whole entry): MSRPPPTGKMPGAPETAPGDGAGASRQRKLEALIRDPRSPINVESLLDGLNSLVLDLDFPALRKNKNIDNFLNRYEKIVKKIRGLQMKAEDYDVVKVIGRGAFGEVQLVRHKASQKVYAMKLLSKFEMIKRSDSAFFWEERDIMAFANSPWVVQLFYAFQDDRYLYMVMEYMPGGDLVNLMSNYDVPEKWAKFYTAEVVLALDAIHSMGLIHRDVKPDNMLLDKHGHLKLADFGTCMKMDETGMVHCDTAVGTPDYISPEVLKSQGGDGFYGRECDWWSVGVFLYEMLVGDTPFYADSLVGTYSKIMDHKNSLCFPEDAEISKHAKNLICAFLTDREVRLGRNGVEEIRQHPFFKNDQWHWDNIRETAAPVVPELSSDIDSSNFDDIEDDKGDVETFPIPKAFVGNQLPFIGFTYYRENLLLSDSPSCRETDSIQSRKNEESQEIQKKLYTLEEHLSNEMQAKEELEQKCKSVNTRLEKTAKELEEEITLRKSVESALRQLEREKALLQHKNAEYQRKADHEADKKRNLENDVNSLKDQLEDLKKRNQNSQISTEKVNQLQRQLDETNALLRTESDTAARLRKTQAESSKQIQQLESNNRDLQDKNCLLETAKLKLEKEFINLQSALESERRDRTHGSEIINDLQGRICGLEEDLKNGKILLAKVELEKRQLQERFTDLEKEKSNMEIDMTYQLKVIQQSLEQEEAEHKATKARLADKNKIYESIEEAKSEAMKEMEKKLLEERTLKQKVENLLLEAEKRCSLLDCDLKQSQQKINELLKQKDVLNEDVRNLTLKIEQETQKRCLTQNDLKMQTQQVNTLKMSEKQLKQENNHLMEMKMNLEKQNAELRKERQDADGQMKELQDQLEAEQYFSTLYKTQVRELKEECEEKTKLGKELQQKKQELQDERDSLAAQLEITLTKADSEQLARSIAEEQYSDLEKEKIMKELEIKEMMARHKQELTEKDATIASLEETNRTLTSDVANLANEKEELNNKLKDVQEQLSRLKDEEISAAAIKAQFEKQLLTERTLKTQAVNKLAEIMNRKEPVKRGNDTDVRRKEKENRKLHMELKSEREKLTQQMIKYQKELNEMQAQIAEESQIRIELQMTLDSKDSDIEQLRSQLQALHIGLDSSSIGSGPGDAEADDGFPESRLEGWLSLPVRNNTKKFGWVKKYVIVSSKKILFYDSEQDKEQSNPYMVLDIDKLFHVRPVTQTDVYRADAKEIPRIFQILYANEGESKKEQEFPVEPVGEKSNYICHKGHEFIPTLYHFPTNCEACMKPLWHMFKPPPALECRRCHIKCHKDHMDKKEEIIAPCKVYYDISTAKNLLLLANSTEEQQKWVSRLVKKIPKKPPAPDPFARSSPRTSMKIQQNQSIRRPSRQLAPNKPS
Sequence of ROCK1 (Q13464 whole entry): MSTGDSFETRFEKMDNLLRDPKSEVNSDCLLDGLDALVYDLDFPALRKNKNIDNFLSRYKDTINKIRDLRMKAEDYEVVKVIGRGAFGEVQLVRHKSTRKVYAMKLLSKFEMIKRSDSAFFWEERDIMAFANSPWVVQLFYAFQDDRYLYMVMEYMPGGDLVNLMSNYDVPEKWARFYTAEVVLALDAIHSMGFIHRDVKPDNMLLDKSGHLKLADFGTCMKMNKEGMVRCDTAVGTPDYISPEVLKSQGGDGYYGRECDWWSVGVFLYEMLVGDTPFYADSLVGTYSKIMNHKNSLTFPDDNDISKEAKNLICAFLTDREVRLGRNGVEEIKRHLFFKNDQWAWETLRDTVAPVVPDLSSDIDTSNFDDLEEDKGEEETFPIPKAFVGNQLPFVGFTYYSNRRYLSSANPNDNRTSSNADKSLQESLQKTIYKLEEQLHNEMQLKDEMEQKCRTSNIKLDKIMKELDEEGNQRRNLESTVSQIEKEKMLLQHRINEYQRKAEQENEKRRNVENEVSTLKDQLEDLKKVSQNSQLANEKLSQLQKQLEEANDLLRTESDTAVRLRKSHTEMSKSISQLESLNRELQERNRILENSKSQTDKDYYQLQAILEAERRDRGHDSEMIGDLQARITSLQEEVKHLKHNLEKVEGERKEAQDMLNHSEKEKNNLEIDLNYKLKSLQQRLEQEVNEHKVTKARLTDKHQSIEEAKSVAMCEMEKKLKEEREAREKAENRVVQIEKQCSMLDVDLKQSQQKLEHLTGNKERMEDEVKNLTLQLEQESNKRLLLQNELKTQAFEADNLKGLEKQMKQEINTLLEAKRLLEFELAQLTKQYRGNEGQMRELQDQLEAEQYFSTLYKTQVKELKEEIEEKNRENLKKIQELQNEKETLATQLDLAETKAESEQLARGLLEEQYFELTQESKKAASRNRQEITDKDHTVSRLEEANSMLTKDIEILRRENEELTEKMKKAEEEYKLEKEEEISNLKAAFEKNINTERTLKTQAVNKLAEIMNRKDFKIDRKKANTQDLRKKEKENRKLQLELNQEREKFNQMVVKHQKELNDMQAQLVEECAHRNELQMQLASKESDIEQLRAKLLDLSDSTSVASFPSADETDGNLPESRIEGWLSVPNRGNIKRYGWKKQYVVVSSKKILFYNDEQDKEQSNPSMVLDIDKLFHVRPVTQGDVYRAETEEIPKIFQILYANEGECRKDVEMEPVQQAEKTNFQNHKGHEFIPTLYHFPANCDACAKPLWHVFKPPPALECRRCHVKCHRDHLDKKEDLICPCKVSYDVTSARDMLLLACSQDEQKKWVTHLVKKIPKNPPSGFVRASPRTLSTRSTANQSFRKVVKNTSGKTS

For O=S(=O)(c1cccc2cnccc12)N1CCCNCC1 [Fasudil], the “inhibition of TEAD/YAP dependent transcription (TEAD reporter activity)” value ([1]; 10 μM, MDA-MB-231, FIG. 5A) was “little if any detectable inhibition; also recorded: lack of effect”, the effect on proliferation (MDA-MB-231) was “no effect” and the effect on proliferation (SK-BR-3) was “no effect”.

In the case of Cc1cncc2cccc(S(=O)(=O)N3CCCN(C(=O)CN)C[C@@H]3C)c12 [Glycyl-H-1152], the “inhibition of TEAD/YAP dependent transcription” value ([1]; 1 μM, MDA-MB-231, FIG. 5A) is reported as “marked inhibition”, the inhibition of proliferation ([2]; 1 μM) is reported as “strikingly and specifically inhibited proliferation” and the “concentration for specific inhibition of proliferation, lower than Y-27632” value ([2]; relative to Y-27632) is reported as 10 fold. The IC50 (ROCK1) was 6 nM and the IC50 (ROCK2) was 11.8 nM.

In the case of Oc1nc(-c2ccc(C(F)(F)F)cc2)nc2c1CSCC2 [XAV939], the inhibition of proliferation [2, 6] is reported as “antagonize the proliferation”, the inhibition of proliferation [3] is reported as “neither XAV939 nor Y-27632 inhibits proliferation” and the inhibition of proliferation (SK-LMS-1) is reported as “had no effect on the proliferation”. For the same molecule, the inhibition of proliferation (MDA-MB-468) was “able to inhibit the proliferation”, the inhibition of proliferation (HCC-193) was “able to inhibit the proliferation” and the inhibition of proliferation (HCC-1395) was “had no effect on the proliferation”. The “effect on growth / proliferation” value [4] was “inhibits proliferation” and the inhibition of proliferation (non-tumorigenic cells) was “neither XAV939 nor Y-27632 inhibits proliferation”.

For C[C@@H](N)[C@H]1CC[C@H](C(=O)Nc2ccncc2)CC1 [Y-27632], the “effect on TEAD reporter” value ([1]; p53 DNA-contact mutant tumor lines, FIG. 4A) was “antagonized”, the “effect on TEAD endogenous target gene expression” value [5] was “antagonized” and the “inhibition of colony formation / proliferation” value ([2]; 10-50 uM, 3 different p53 contact mutant tumor cells, FIG. 5B) was “almost complete inhibition of colony formation; also recorded: specific inhibition of proliferation”. For the same molecule, the inhibition of proliferation [2, 6] was “specifically inhibiting the proliferation; also recorded: specifically inhibit the proliferation; also recorded: antagonize the proliferation; also recorded: specifically inhibited proliferation”, the “inhibition of colony formation” value ([3]; even at 100 μM, FIG. 5B) was “no detectable inhibition of colony formation” and the inhibition of proliferation [3] was “neither XAV939 nor Y-27632 inhibits proliferation”. For the same molecule, the “growth inhibitory effects on any of the other tumor cells analyzed” value ([3]; tumor cells without p53 DNA contact mutation, FIG. 4B) was “without any obvious growth inhibitory effects”, the inhibition of proliferation (non-tumorigenic cells) was “neither XAV939 nor Y-27632 inhibits proliferation” and the “effect on transforming ability (colony formation in soft agar)” value (from here on “effect on transforming ability”) (MCF10A cells; MCF10a cells overexpressing YAP) was “specifically and markedly impaired the transforming ability”. The “effect on transforming ability” value (MCF10A cells; MCF10a cells overexpressing mutant HRAS) was “lack of effects”, the “effect on transforming ability” value (MCF10A cells; MCF10a cells overexpressing p53 R175H (conformational)) was “lack of effects” and the “effect on transforming ability” value (MCF10A cells; MCF10a cells overexpressing p53 R273H (DNA contact)) was “specifically and markedly impaired the transforming ability”.

With Verteporfin the inhibition of proliferation [2, 6] was “inhibit proliferation” and the inhibition of proliferation [3] was “inhibited the proliferation; also recorded: inhibiting proliferation”.
